From US9259402B2, “Compounds with (1 E, 6E)-1,7-bis-(3,4-dimethoxyphenyI)-4,4-disubstituted-hepta-1,6-diene-3,5-dione structural scaffold, their biological activity, and uses thereof” (AndroScience Corporation, priority 2007, dated 2016)
Residue numbers refer to the chain shown, from its start. Where two headings read alike, the source gives them in different places. Each block holds one compound with its values, some of them ahead of it.

Key:
[1] = target: T1, Androgen Receptor (AR) protein expression (Homo sapiens, UniProt P10275, H875Y, form not given); assay: Western Blot analysis of AR protein expression in CWR22Rv1 cells; settings: for IC50: read-out: Reduction of AR expression IC50 (μM) 24 h, Western blotting, 24 h post-incubation
T1 sequence (P10275 1-920 H875Y): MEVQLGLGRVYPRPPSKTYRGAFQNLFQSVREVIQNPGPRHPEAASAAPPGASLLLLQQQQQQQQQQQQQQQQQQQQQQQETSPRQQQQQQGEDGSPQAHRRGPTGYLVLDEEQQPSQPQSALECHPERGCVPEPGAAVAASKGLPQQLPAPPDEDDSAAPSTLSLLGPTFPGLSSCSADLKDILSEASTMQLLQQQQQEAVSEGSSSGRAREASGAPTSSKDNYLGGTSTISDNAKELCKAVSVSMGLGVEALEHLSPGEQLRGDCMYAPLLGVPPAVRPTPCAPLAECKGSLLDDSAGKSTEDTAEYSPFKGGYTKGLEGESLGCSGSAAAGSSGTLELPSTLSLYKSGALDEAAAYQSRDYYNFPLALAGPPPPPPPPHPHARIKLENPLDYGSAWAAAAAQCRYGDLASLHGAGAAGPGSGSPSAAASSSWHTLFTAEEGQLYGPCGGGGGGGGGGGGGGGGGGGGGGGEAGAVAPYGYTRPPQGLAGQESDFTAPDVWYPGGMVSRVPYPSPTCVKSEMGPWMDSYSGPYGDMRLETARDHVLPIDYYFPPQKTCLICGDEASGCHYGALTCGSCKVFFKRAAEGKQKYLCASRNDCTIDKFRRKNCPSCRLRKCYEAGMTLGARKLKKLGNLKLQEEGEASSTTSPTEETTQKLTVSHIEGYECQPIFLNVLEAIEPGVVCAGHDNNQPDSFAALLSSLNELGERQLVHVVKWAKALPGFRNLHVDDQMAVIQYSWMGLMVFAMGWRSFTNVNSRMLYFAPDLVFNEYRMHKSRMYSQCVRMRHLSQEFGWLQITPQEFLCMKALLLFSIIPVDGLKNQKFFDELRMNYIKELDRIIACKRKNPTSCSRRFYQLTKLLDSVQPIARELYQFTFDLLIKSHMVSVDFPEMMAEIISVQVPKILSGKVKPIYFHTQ

[2] = system: CWR22Rv1 cells (human prostate cancer); assay: MTT cell growth assay, CWR22Rv1 cells; assay type: cell-based; settings: 5 days, read-out: Inhibition of Tumor cells growth IC50
Procedure: The MTT cell proliferation assay was applied in the present invention to detect the capability of compounds to suppress or inhibit prostate cancer cells growth. […] Briefly, 1×10^3 LNCaP or CWR22Rv1 cells suspended in complete medium were plated into each well of a 96-well Microtest III tissue culture plate (Falcon, N.J.). Two days later, the medium was replaced with RPMI-1640 medium containing 10% charcoal/dextran-deprived FBS (hormone-deprived fetal bovine serum). Testing compounds were added to the medium at indicated concentrations with or without 1 nM DHT and cells were cultured for 5 days in an incubator (at 37° C.). MTT substrate solution (5 mg/ml in PBS) in 1/10 of volume was added to the cells in each well at 2 hours before harvesting. After 2 hour incubation, the plates were centrifuged (10 min at 1,000 rpm) and the supernatant from each well was carefully removed. A 100 μl of lysis buffer (50% dimethyl formamide, 5% sodium dodecyl sulphate, 0.35 M acetic acid, and 50 mM HCl) was added to each well to lyse the cells and dissolved tetrazolium in each well. The relative quantity of enzyme activity from each well was measured based on absorbance read at a wavelength of 450 nm using a Bio-RAD BenchMark microplate reader. Data derived from the MTT assay were also verified by the actual cell count and cell morphology on a separate plate set up in parallel.
For inhibition of tumor cell growth, in vitro, cells were growth in the presence of testing compounds for 5 days, and the cell growth was assayed by standard MTT assay.

[3] = target: T2, Androgen Receptor (AR) protein expression (Homo sapiens, UniProt P10275, T878A); assay: Western Blot analysis of AR protein expression in LNCaP cells; assay type: cell-based
T2 sequence (P10275 1-920 T878A): T1 sequence (P10275 1-920 H875Y) with Y875H, T878A

[4] = Stability in acidic condition (0.1 N HCl, 37° C.); assay type: physicochemical
Text: (§1) Also, at 24 hr where stability of JM49 was only 4%, while its derivative Compound 6 had improved to 79%. Similar improvements in stability (from 6-24 hr) were also observed in the conditions of rat plasma (Table 4) and human plasma (Table 5).

[5] = Stability in human plasma; assay type: in vitro ADME; settings: 37° C.
Text: as §1

[6] = target: T3, AR protein (Homo sapiens, UniProt P10275, T878A); assay: Cycloheximide chasing assay of AR degradation in LNCaP cells; assay type: cell-based; settings: in the presence of cycloheximide (CHX)
T3 sequence (P10275 1-920 T878A): T1 sequence (P10275 1-920 H875Y) with Y875H, T878A
Procedure: AR protein “degradation” in prostate cancer cells was measured by using cycloheximide (a protein synthesis inhibitor) chasing assay method. Briefly, LNCaP cells were incubated with testing ASC compound at the designated concentrations for 24 hours. Subsequently, cycloheximide was added to the cells at a concentration of 15 μg/ml to block new protein synthesis. After incubation, cells were harvested at designated time periods and the resultant change in AR protein levels were analysed using Western Blot analysis as described above.

[7] = Stability in rat plasma; assay type: in vitro ADME; settings: 37° C.
Text: as §1

Structure (SMILES): COc1ccc(C=CC(=O)C(CC2CCCC2)=C(O)C=Cc2ccc(OC)c(OC)c2)cc1OC [Compound 3]
IC50 [1]: 2.8 µM

Structure (SMILES): CCCCC(F)(C(=O)C=Cc1ccc(OC)c(OC)c1)C(=O)C=Cc1ccc(OC)c(OC)c1 (centres unmarked) [Compound 19]
IC50 [2]: 4.7 µM | IC50 [1]: > 5 µM

Structure (SMILES): COc1ccc(/C=C/C(=O)C(C(=O)/C=C/c2ccc(OC)c(OC)c2)=C(O)/C=C/c2ccc(OC)c(OC)c2)cc1OC [ASC-JM4]
Reduction of AR expression (Western Blot, in words) [3]: capable of reducing endogenous AR expression | Reduction of AR expression (Western Blot, in words) [1]: capable of reducing endogenous AR expression

Structure (SMILES): COc1ccc(C=CC(=O)C=C(O)C=Cc2ccc(OC)c(OC)c2)cc1OC [ASC-J9 ®, 1,7-Bis-(3,4-dimethoxy-phenyl)-5-hydroxy-hepta-1,4,6-trien-3-one, reference compound]
AR protein degradation (Western Blot, in words) [6]: enhances AR protein degradation

Structure (SMILES): COc1ccc(/C=C/C(=O)C2CC(c3ccc(OC)c(OC)c3)(C(C(=O)/C=C/c3ccc(OC)c(OC)c3)C(=O)/C=C/c3ccc(OC)c(OC)c3)CC2=O)cc1OC (centres unmarked) [ASC-JM5]
AR protein degradation (Western Blot, in words) [6]: enhances AR protein degradation

Structure (SMILES): COc1ccc(/C=C/C(=O)C(C)(CC2CCC2)C(=O)/C=C/c2ccc(OC)c(OC)c2)cc1OC [Compound 2]
melting point: 161 to 162 °C

Structure (SMILES): COc1ccc(/C=C/C(=O)C(C)(CC2CC2)C(=O)/C=C/c2ccc(OC)c(OC)c2)cc1OC [Compound 1]
IC50 ([2]; Homo sapiens, 120 h): 2.4 µM

Results, then the compound that gave them:

melting point: 98 to 100 °C
Structure (SMILES): COc1ccc(/C=C/C(=O)C(F)(CC2CCC2)C(=O)/C=C/c2ccc(OC)c(OC)c2)cc1OC [Compound 14]

IC50 ([2]; Homo sapiens, 120 h): > 7.5 µM
Structure (SMILES): COc1ccc(/C=C/C(=O)C(F)(CC(=O)N(C)C)C(=O)/C=C/c2ccc(OC)c(OC)c2)cc1OC [Compound 18]

IC50 ([2]; Homo sapiens, 120 h): 4.6 µM | melting point: 128 to 129 °C
Structure (SMILES): COc1ccc(/C=C/C(=O)C(C)(CC2CCCCC2)C(=O)/C=C/c2ccc(OC)c(OC)c2)cc1OC [Compound 5]

melting point: 104 to 105 °C
Structure (SMILES): COc1ccc(/C=C/C(=O)C(F)(CC2CC2)C(=O)/C=C/c2ccc(OC)c(OC)c2)cc1OC [Compound 13]

Concentration change (%) in acidic condition ([4]; 0 h): 100% | Concentration change (%) in acidic condition ([4]; 2 h): 100% | Concentration change (%) in acidic condition ([4]; 4 h): 99% | Concentration change (%) in acidic condition ([4]; 24 h): 79% | Concentration change (%) in acidic condition ([4]; 48 h): 56% | Concentration change (%) in human plasma ([5]; 0 h): 100% | Concentration change (%) in human plasma ([5]; 6 h): 91% | Concentration change (%) in human plasma ([5]; 24 h): 54% | Concentration change (%) in human plasma ([5]; 48 h): 27%
Structure (SMILES): CCN(CC)C(=O)CC(C)(C(=O)/C=C/c1ccc(OC)c(OC)c1)C(=O)/C=C/c1ccc(OC)c(OC)c1 [Compound 6]

Concentration change (%) in acidic condition ([4]; 0 h): 100% | Concentration change (%) in acidic condition ([4]; 1 h): 99% | Concentration change (%) in acidic condition ([4]; 2 h): 99% | Concentration change (%) in acidic condition ([4]; 4 h): 98% | Concentration change (%) in acidic condition ([4]; 24 h): 81% | Concentration change (%) in acidic condition ([4]; 48 h): 58% | Concentration change (%) in human plasma ([5]; 6 h): 95% | Concentration change (%) in human plasma ([5]; 24 h): 71% | Concentration change (%) in human plasma ([5]; 48 h): 49%
Structure (SMILES): COc1ccc(/C=C/C(=O)C(C)(CC(=O)N(C)C)C(=O)/C=C/c2ccc(OC)c(OC)c2)cc1OC [Compound 7]

melting point: 55 to 56 °C
Structure (SMILES): CCOC(=O)CCC(=O)C=Cc1ccc(O)c(OC)c1 [Monomer 6, 6-(4-Hydroxy-3-methoxy-phenyl)-4-oxo-hex-5-enoic acid ethyl ester]

Concentration change (%) in acidic condition ([4]; 0 h): 100% | Concentration change (%) in acidic condition ([4]; 1 h): 14% | Concentration change (%) in acidic condition ([4]; 2 h): 8% | Concentration change (%) in acidic condition ([4]; 6 h): 0% | Concentration change (%) in acidic condition ([4]; 24 h): 0% | Concentration change (%) in rat plasma ([7]; 0 h): 100% | Concentration change (%) in rat plasma ([7]; 1 h): 93% | Concentration change (%) in rat plasma ([7]; 2 h): 88% | Concentration change (%) in rat plasma ([7]; 6 h): 73% | Concentration change (%) in rat plasma ([7]; 24 h): 27% | Concentration change (%) in rat plasma ([7]; 48 h): 7% | Concentration change (%) in human plasma ([5]; 0 h): 100% | Concentration change (%) in human plasma ([5]; 1 h): 88% | Concentration change (%) in human plasma ([5]; 2 h): 76% | Concentration change (%) in human plasma ([5]; 6 h): 45% | Concentration change (%) in human plasma ([5]; 24 h): 11% | Concentration change (%) in human plasma ([5]; 48 h): 1%
Structure (SMILES): COc1ccc(/C=C/C(=O)C(CC(=O)N(C)C)=C(O)/C=C/c2ccc(OC)c(OC)c2)cc1OC [JM77]
